Experimental data reported in ChEMBL document CHEMBL1201862, “PubChem BioAssay data set” (2004).
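The compound was tested at five concentrations on cells cultured in 96-well plates, with a 48-hour exposure period. Here, GI50 denotes the concentration required for 50% inhibition of growth.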 Active and inactive are the calls of the source. No stated cut-off is given here; in the data, active = GI50 up to about 1.1 µM and inactive = higher.

Experiments:
Test in all cases: NCI-60 cell line screen, 48 h
TK-10 = tested on: TK-10
OVCAR-3 = tested on: OVCAR-3
A549 = tested on: A549
OVCAR-8 = tested on: OVCAR-8
U-251 = tested on: U-251
KM-20L2 = tested on: KM-20L2
M14 = tested on: M14
HCT-15 = tested on: HCT-15
CAKI-1 = tested on: CAKI-1
SK-MEL-5 = tested on: SK-MEL-5
LXFL 529 = tested on: LXFL 529
SN12C = tested on: SN12C
MOLT-4 = tested on: MOLT-4
LOX IMVI = tested on: LOX IMVI
SNB-75 = tested on: SNB-75
UACC-62 = tested on: UACC-62
HOP-18 = tested on: HOP-18
SF-539 = tested on: SF-539
SW-620 = tested on: SW-620
NCI-H460 = tested on: NCI-H460
XF498 = tested on: XF498
UACC-257 = tested on: UACC-257
SNB-19 = tested on: SNB-19
HCT-116 = tested on: HCT-116
SF-295 = tested on: SF-295
A498 = tested on: A498
HOP-92 = tested on: HOP-92
K562 = tested on: K562
786-0 = tested on: 786-0
ACHN = tested on: ACHN
HL-60 = tested on: HL-60
RXF 393 = tested on: RXF 393
RXF 631 = tested on: RXF 631
SK-MEL-28 = tested on: SK-MEL-28
CCRF-CEM = tested on: CCRF-CEM
DMS-114 = tested on: DMS-114
HOP-62 = tested on: HOP-62
HCC 2998 = tested on: HCC 2998
DMS-273 = tested on: DMS-273
COLO 205 = tested on: COLO 205
NCI-H23 = tested on: NCI-H23
EKVX = tested on: EKVX
RPMI-8226 = tested on: RPMI-8226
DLD-1 = tested on: DLD-1
M19-MEL = tested on: M19-MEL
HT-29 = tested on: HT-29
SK-OV-3 = tested on: SK-OV-3
SNB-78 = tested on: SNB-78
IGROV-1 = tested on: IGROV-1
OVCAR-4 = tested on: OVCAR-4
UO-31 = tested on: UO-31
Malme-3M = tested on: Malme-3M
KM12 = tested on: KM12
NCI-H226 = tested on: NCI-H226
NCI-H522 = tested on: NCI-H522
OVCAR-5 = tested on: OVCAR-5
SF-268 = tested on: SF-268
SK-MEL-2 = tested on: SK-MEL-2
SR = tested on: SR

Measured: GI50

CC(C)c1ccc(C(c2ccc(OCC(=O)O)cc2)c2ccc(C(C)C)cc(=O)c2O)c(O)c(=O)c1
active: HOP-92 0.0478 µM
3.56 µM: HCT-15
inactive: TK-10 5.3 µM | OVCAR-3 2.77 µM | A549 3.48 µM | OVCAR-8 4.44 µM | U-251 5.3 µM | KM-20L2 3.54 µM | M14 3.18 µM | CAKI-1 3.82 µM | SK-MEL-5 3.22 µM | LXFL 529 4.5 µM | SN12C 4.15 µM | MOLT-4 3.73 µM | LOX IMVI 3.71 µM | SNB-75 3.29 µM | UACC-62 3.55 µM | HOP-18 9.89 µM | SF-539 6.05 µM | SW-620 4.8 µM | NCI-H460 2.83 µM | XF498 2.63 µM | UACC-257 5.6 µM | SNB-19 5.89 µM | HCT-116 3.76 µM | SF-295 4.4 µM | A498 23.9 µM | K562 3.41 µM | 786-0 6.47 µM | ACHN 4.66 µM | HL-60 3.27 µM | RXF 393 10.2 µM | RXF 631 5.08 µM | SK-MEL-28 4.81 µM | CCRF-CEM 4.05 µM | DMS-114 2.92 µM | HOP-62 2.79 µM | HCC 2998 4.94 µM | DMS-273 3.45 µM | COLO 205 3.14 µM | NCI-H23 3.78 µM | EKVX 4.93 µM | RPMI-8226 4.38 µM | DLD-1 3.48 µM | M19-MEL 4.94 µM | HT-29 3.92 µM | SK-OV-3 6.81 µM | SNB-78 6.79 µM | IGROV-1 4.33 µM | OVCAR-4 3.61 µM

CCOC(=O)NC(=O)c1cn(C2CCCCC2)c(=O)[nH]c1=O
53.8 µM: HCT-15
inactive: TK-10 > 100 µM | OVCAR-3 > 100 µM | A549 58.7 µM | OVCAR-8 > 100 µM | U-251 56.8 µM | UO-31 56 µM | Malme-3M > 100 µM | KM-20L2 36.3 µM | M14 55.1 µM | CAKI-1 > 100 µM | KM12 78.2 µM | LXFL 529 39.7 µM | SN12C > 100 µM | MOLT-4 41.8 µM | LOX IMVI 9.75 µM | UACC-62 40 µM | HOP-18 > 100 µM | SF-539 39.7 µM | SW-620 17.4 µM | NCI-H460 32.2 µM | XF498 > 100 µM | UACC-257 > 100 µM | SNB-19 > 100 µM | HCT-116 5.11 µM | SF-295 94 µM | NCI-H226 > 100 µM | A498 85.3 µM | HOP-92 > 100 µM | K562 4.9 µM | 786-0 24.7 µM | ACHN 35.6 µM | HL-60 7.53 µM | RXF 631 > 100 µM | NCI-H522 > 100 µM | SK-MEL-28 > 100 µM | CCRF-CEM 33.3 µM | OVCAR-5 > 100 µM | HOP-62 38 µM | SF-268 > 100 µM | HCC 2998 53.6 µM | DMS-273 73.3 µM | COLO 205 98.9 µM | NCI-H23 > 100 µM | EKVX > 100 µM | RPMI-8226 63.5 µM | DLD-1 61.8 µM | M19-MEL 76.4 µM | HT-29 6.67 µM | SK-OV-3 77.3 µM | SNB-78 65.9 µM | SK-MEL-2 > 100 µM | IGROV-1 54.8 µM | OVCAR-4 67.6 µM

CC(C)(C)C(=O)C(c1ccc(-c2cscn2)cc1)c1ccc(-c2cscn2)cc1
inactive: TK-10 31.9 µM | OVCAR-3 28.1 µM | A549 29.6 µM | OVCAR-8 16.7 µM | U-251 20.7 µM | UO-31 44.4 µM | Malme-3M > 56.4 µM | KM-20L2 > 100 µM | M14 97.5 µM | CAKI-1 33.4 µM | SK-MEL-5 38.1 µM | KM12 > 83.9 µM | LXFL 529 39.7 µM | SN12C 34.7 µM | MOLT-4 > 100 µM | LOX IMVI > 69.2 µM | SNB-75 6.25 µM | UACC-62 21.7 µM | HOP-18 67.5 µM | SF-539 23.6 µM | SW-620 > 100 µM | NCI-H460 40.5 µM | XF498 27.3 µM | UACC-257 76 µM | SNB-19 28.1 µM | HCT-116 44 µM | SF-295 18.1 µM | NCI-H226 > 49.7 µM | A498 21.9 µM | HOP-92 9.55 µM | K562 > 92.9 µM | 786-0 21.5 µM | ACHN 32 µM | HL-60 > 100 µM | RXF 393 18.8 µM | RXF 631 22.7 µM | NCI-H522 22.8 µM | SK-MEL-28 46.3 µM | CCRF-CEM > 100 µM | OVCAR-5 > 100 µM | HOP-62 18.5 µM | SF-268 25.5 µM | HCC 2998 > 100 µM | DMS-273 58.3 µM | COLO 205 > 89.7 µM | NCI-H23 30.5 µM | EKVX 33.3 µM | RPMI-8226 32.1 µM | DLD-1 > 79.6 µM | M19-MEL 65 µM | HT-29 72.3 µM | SK-OV-3 29.8 µM | SNB-78 18.5 µM | SK-MEL-2 21.4 µM | IGROV-1 37.8 µM | OVCAR-4 3.25 µM
> 95.1 µM: HCT-15

COc1cc2c(cc1O)[C@H](Cc1ccc(Oc3cc(C[C@H]4c5cc(OC)c(OC)cc5CCN4C)ccc3OC)cc1)NCC2
7.98 µM: HCT-15
inactive: TK-10 > 10 µM | OVCAR-3 10.5 µM | A549 17.9 µM | OVCAR-8 14.5 µM | U-251 12 µM | UO-31 8.75 µM | Malme-3M 22.1 µM | KM-20L2 10.1 µM | M14 1.81 µM | CAKI-1 4.08 µM | KM12 12.9 µM | LXFL 529 13.7 µM | SN12C 14.8 µM | MOLT-4 3.25 µM | LOX IMVI 8.95 µM | SNB-75 6.56 µM | UACC-62 17.8 µM | HOP-18 17.1 µM | SF-539 10.5 µM | SW-620 11.6 µM | NCI-H460 14.3 µM | XF498 11.2 µM | UACC-257 15.8 µM | SNB-19 16.1 µM | HCT-116 8.11 µM | SF-295 11.9 µM | NCI-H226 12.7 µM | A498 13.7 µM | HOP-92 5.16 µM | K562 2.21 µM | 786-0 12.4 µM | ACHN 11.4 µM | HL-60 12.4 µM | RXF 393 3.77 µM | RXF 631 15.5 µM | SK-MEL-28 16.8 µM | CCRF-CEM 9.64 µM | DMS-114 18.7 µM | OVCAR-5 18 µM | HOP-62 > 10 µM | SF-268 11.1 µM | SR 7.5 µM | HCC 2998 6.62 µM | DMS-273 19.5 µM | COLO 205 17.9 µM | NCI-H23 11.9 µM | EKVX > 10 µM | RPMI-8226 12.9 µM | M19-MEL 22.6 µM | HT-29 6.22 µM | SK-MEL-2 17 µM | IGROV-1 15.2 µM | OVCAR-4 12.7 µM
